Experimental data from the NIST ThermoML archive (doi:10.1016/j.tca.2005.10.007).

Assay: xn = mol fraction of the nth substance listed
Settings: 101 kPa, Liquid, Vibrating tube method

CC(O)CN (stereo not drawn) [1-amino-2-propanol] + O
mass density [kg/m3]
Settings	283.15 K	288.15 K	293.15 K	298.15 K
x2 = 0.0438	970.22	966.31	962.38	958.41
x2 = 0.0801	971.77	967.87	963.94	959.99
x2 = 0.1269	974.08	970.22	966.31	962.38
x2 = 0.1584	975.52	971.66	967.77	963.84
x2 = 0.2003	977.67	973.82	969.94	966.03
x2 = 0.2999	983.38	979.58	975.73	971.85
x2 = 0.3498	986.51	982.72	978.89	975.02
x2 = 0.3999	989.63	985.84	982.02	978.16
x2 = 0.4499	993.04	989.26	985.45	981.59
x2 = 0.4968	996.4	992.66	988.85	985
x2 = 0.5122	997.62	993.86	990.05	986.21
x2 = 0.5501	1000.3	996.55	992.74	988.89
x2 = 0.6001	1004.18	1000.45	996.65	992.81
x2 = 0.6501	1007.83	1004.09	1000.3	996.47
x2 = 0.7	1011.17	1007.46	1003.71	999.92
x2 = 0.7501	1013.81	1010.2	1006.54	–
x2 = 0.8	1014.93	1011.54	1008.08	–
x2 = 0.84	1014.28	1011.22	1008.08	–
x2 = 0.88	1011.59	1009.04	1006.38	–
x2 = 0.92	1007.29	1005.41	1003.37	–
x2 = 0.96	1002.39	1001.24	999.86	–
